Reference: patent US20160345582A1, “HERBICIDE COMPOSITIONS FOR WEED CONTROL” (Valent U.S.A., Corporation, priority 2015, published 2016)

Legend:
Fall Panicum = assay: Field test 2013 (Example 2), post emergence weed control in corn; type: in vivo; details: Study 3; 30 DAT; mesotrione 105, pyroxasulfone 90 g ai/ha; applied at V5 corn stage
Waterhemp = assay: as above; type: in vivo, Amaranthus tuberculatus; details: 30 DAT, applied at V5 corn stage
Ivyleaf Morningglory = assay: Field test 2011 (Example 1), post emergence weed control in corn; type: in vivo, Ipomoea hederacea; details: Study 1; 30 DAT; topramezone 18.4, pyroxasulfone 90 g ai/ha; applied at V5 corn stage, weeds 4 to 10 inches
Experimental: (§1) In 2011, two field tests were conducted using similar protocols. Both studies were completed in Indiana, United States. Weeds were 4 to 10 inches in height at time of application. Untreated checks were included in the trial, however pyroxasulfone alone is not effective for post emergence weed control and was therefore not included as a standalone treatment. Roundup Ready corn (Zea maize) was used in the test as the crop plant utilizing a natural population of weeds. All of the treatments contained non-ionic surfactant at 0.25% v/v and were applied at the V5 corn growth stage. Applications were made utilizing a hand boom sprayer with application area for each treatment equating to 10 feet by 200 feet.
(§2) Topramezone was administered at 18.4 grams/hectare. Pyroxasulfone was administered at 90 grams/hectare.
(§3) Thirty days after treatment (“DAT”) readings were taken to determine the survival of Ivyleaf Morningglory, Yellow Nutsedge, Velvetleaf and Annual Grass. Survival ratings were taken by counting the number of alive and dead plants at the time of the reading. All data was analyzed using Bartlett's test and with p value of […] for determining significance of the results. The Effect of Topamezone and Pyroxasulfone on Weeds (% Control).”

Yellow Nutsedge [1] = assay: as above; type: in vivo, Cyperus esculentus; details: Study 1; 30 DAT; topramezone 18.4, pyroxasulfone 90 g ai/ha; applied at V5 corn stage, weeds 4 to 10 inches
Experimental: as §1, §2, §3

Velvetleaf [2] = assay: as above; type: in vivo, Abutilon theophrasti; details: Study 2; 30 DAT; topramezone 18.4, pyroxasulfone 90 g ai/ha; applied at V5 corn stage, weeds 4 to 10 inches
Experimental: as §1, §2, §3

Annual Grass = assay: as above; type: in vivo; details: Study 2; 30 DAT; topramezone 18.4, pyroxasulfone 90 g ai/ha; applied at V5 corn stage, weeds 4 to 10 inches
Experimental: as §1, §2, §3

Common Ragweed = assay: Field test 2013 (Example 2), post emergence weed control in corn; type: in vivo, Ambrosia artemisiifolia; details: Study 4; 30 DAT; topramezone 18.4, pyroxasulfone 90 g ai/ha; applied at V5 corn stage
Giant Foxtail = assay: as above; type: in vivo, Setaria faberi; details: Study 5; 30 DAT; topramezone 18.4, pyroxasulfone 90, atrazine 840 g ai/ha; applied at V5 corn stage
Foxtail = assay: as above; type: in vivo, Setaria species; details: Study 6; 30 DAT; topramezone 18.4, pyroxasulfone 90 g ai/ha; applied at V5 corn stage
Palmer Amaranth = assay: as above; type: in vivo, Amaranthus palmeri; details: Study 7; 30 DAT; topramezone 18.4, pyroxasulfone 90 g ai/ha; applied at V5 corn stage
Giant Ragweed = assay: as above; type: in vivo, Ambrosia trifida; details: Study 7; 30 DAT; topramezone 18.4, pyroxasulfone 90 g ai/ha; applied at V5 corn stage
Yellow Nutsedge [3] = assay: as above; type: in vivo, Cyperus esculentus; details: Study 7; 30 DAT; topramezone 18.4, pyroxasulfone 90 g ai/ha; applied at V5 corn stage
Barnyardgrass = assay: as above; type: in vivo, Echinochloa crus-galli; details: 30 DAT, topramezone 18.4, pyroxasulfone 90 g ai/ha, applied at V5 corn stage
Broadleaf signalgrass = assay: as above; type: in vivo, Brachiaria platyhylla; details: Study 7; 30 DAT; topramezone 18.4, pyroxasulfone 90 g ai/ha; applied at V5 corn stage
Velvetleaf [4] = assay: as above; type: in vivo, Abutilon theophrasti; details: Study 9; 30 DAT; topramezone 18.4, pyroxasulfone 90 g ai/ha; applied at V5 corn stage

Structure (SMILES): CS(=O)(=O)c1ccc(C(=O)C2C(=O)CCCC2=O)c([N+](=O)[O-])c1 [Mesotrione, 2[4-(methylsulfonyl)-2-nitrobenzoyl]cyclohexane-1,3-dione]
- % Control Fall Panicum (Fall Panicum): 98%
- % Control Waterhemp (Waterhemp; Study 3, mesotrione 105, pyroxasulfone 90 g ai/ha): 80%

Structure (SMILES): Cc1c(C(=O)c2cnn(C)c2O)ccc(S(C)(=O)=O)c1C1=NOCC1 [Topramezone, [3-(4,5-dihydro-1,2-oxazol-3-yl)-4-mesyl-o-tolyl](5-hydroxy-1-methylpyrazol-4-yl)methanone]
- % Control Ivyleaf Morningglory (Ivyleaf Morningglory): 68%
- % Control Yellow Nutsedge (Yellow Nutsedge [1]): 73%
- % Control Velvetleaf (Velvetleaf [2]): 95%
- % Control Annual Grass (Annual Grass): 33%
- % Control Waterhemp (Waterhemp; Study 6, topramezone 18.4, pyroxasulfone 90 g ai/ha): 94%
- % Control Waterhemp (Waterhemp; Study 8, topramezone 18.4, pyroxasulfone 90 g ai/ha): 90%
- % Control Common Ragweed (Common Ragweed): 94%
- % Control Giant Foxtail (Giant Foxtail): 87%
- % Control Foxtail (Foxtail): 98%
- % Control Palmer Amaranth (Palmer Amaranth): 93%
- % Control Giant Ragweed (Giant Ragweed): 91%
- % Control Yellow Nutsedge (Yellow Nutsedge [3]): 60%
- % Control Barnyardgrass (Barnyardgrass; Study 7): 80%
- % Control Barnyardgrass (Barnyardgrass; Study 9): 93%
- % Control Broadleaf signalgrass (Broadleaf signalgrass): 90%
- % Control Velvetleaf (Velvetleaf [4]): 90%
